Measured values taken from publication PMC12693135, “Ocular Toxicity and Mechanistic Investigation for Berberine and Its Metabolite Berberrubine on Zebrafish” (Molecules, 2025).
pIC50: −log10 of the molar value.

How the values were obtained:
[1] = system: human corneal epithelial (HCE-T) cell line; assay: MTT cytotoxicity assay on HCE-T cells; assay type: cell-based
Experimental: (§1) The human corneal epithelial cell line HCE-T (Cellosaurus accession: CVCL_1272, RRID: CVCL_1272, RCB: RCB2280) was purchased from Procell Life Science and Technology Co., Ltd. (Wuhan, China). […] were cultured in high-glucose Dulbecco’s Modified Eagle Medium (DMEM), which was purchased from Procell Life Science and Technology Co., Ltd. (Wuhan, China). The high-glucose DMEM was DMEM basic medium supplemented with 15% fetal bovine serum (Procell), 1% penicillin/streptomycin (Procell), 5 μg/mL insulin, and 10 ng/mL human epidermal growth factor (Procell).
(§2) HCE-T cells were seeded in 96-well plates (8 × 10^3 cells/well, 100 μL medium) and cultured overnight at 37 °C, 5% CO2 for adhesion. BBR or its metabolites at various concentrations (BBR and M3 at the concentrations of 31.25, 62.5, 125, 250 and 500 µM, M1 and M4 at the concentrations of 25, 50, 100, 200 and 400 µM) in 0.5% DMSO were added and incubated for 24 h, with 0.5% DMSO in culture medium as the vehicle control. Subsequently, 20 μL MTT (5 mg/mL) was added to each well and the cells were cultured at 37 °C for 4 h. Then, the culture medium was removed, and 150 μL DMSO was added to dissolve formazan crystals and the absorbance at 570 nm was measured on a Synergy H1 multifunctional microplate reader (Biotek, Winooski, VT, USA). The IC50 values of test compounds were calculated by Graphpad Prism 8.5 (GraphPad Software Co., San Diego, CA, USA).

[2] = MTT cytotoxicity assay on HCE-T cells; assay type: cell-based, human; conditions: human, HCE-T human corneal epithelial cells; HCE-T cells, 24 h incubation
Experimental: as §1, §2

Row | Compound | pIC50 [1] | IC50 at 24 h [2]
1 | COc1ccc2cc3[n+](cc2c1OC)CCc1cc(O)c(O)cc1-3 [M3, demethyleneberberine] | < 3.40 | –
2 | COc1cc2c(cc1O)CC[n+]1cc3c(OC)c(OC)ccc3cc1-2 [M4, jatrorrhizine] | – | > 400 µM
